pIC50: −log10 of the molar value.

What all share (assay type): cell-based
One assay concerns the target human androgen receptor (Homo sapiens (Human), UniProt P10275). Briefly: Antagonist activity for AR (pMMTV-luc reporter transcription activity in transfected COS-7 cells, DHT 1 nmol/L). As to conditions: for pIC50: 50% transcription activity inhibition concentration, COS-7 cells with pMMTV-luc and pEX-hAR, DHT 1 nmol/L, 24 hours. As for the experimental part: Antagonist activity for AR was evaluated according to the following method. COS-7 cells (ATCC) were transfected with pMMTV-luc vector (reporter plasmid having, as an androgen response element, […] long terminal repeat) and pEX-hAR vector (human androgen receptor expression vector: which expresses human AR gene under control of CMV promoter) by using Nucleofector (registered trademark) Kit R (Lonza) as a transfection reagent and Amaxa (Lonza). The COS-7 cells obtained after transfection were seeded in a clear bottom 96 well microplate (BD) at 1.5×10^4/well with phenol red free RPMI1640 containing 10% charcoal-treated fetal bovine serum (hereinbelow, DCC-FBS) (hereinbelow, the medium is referred to as an evaluation medium), and then cultured overnight. […] Then, the transcription activity value was measured. The transcription activity was measured by using Bright-Glo™ Luciferase Assay System (Promega).

A further assay deals with androgen receptor (Homo sapiens (Human), UniProt P10275, T878A). The assay is described as follows: Activity of reducing expression level of androgen receptor (Western blotting of LNCaP cell lysate). As to conditions: 48 hours. The method, then: AR positive human prostate cancer cells LNCaP were seeded in a clear bottom 6 well microplate (BD) at 3.5×10^5/well with phenol red free RPMI1640 containing 5% FBS (hereinbelow, the medium is referred to as an evaluation medium), and then cultured overnight. The culture was added with the evaluation medium containing the compound of Examples or the compound of Comparative Examples such that the final concentration of the compound of Examples or the compound of Comparative Examples was 10000 nmol/L, followed by culture for 48 hours. After culture for 48 hours, the medium was removed and the cells were washed with PBS and added with 0.1 mL of Lysis buffer (M-PER added with Protease Inhibitor Cocktail), followed by keeping at 4° C. for 20 minutes. After cell lysis, the cell solution was centrifuged to recover the supernatant as cell lysate. […] The antibody-reacting band (anti AR receptor) was quantified by LAS-3000 (FUJIFILM) using Super Signal West Pico Substrate (Thermo Scientific) as a detection reagent.
Chain of androgen receptor (P10275 whole entry T878A): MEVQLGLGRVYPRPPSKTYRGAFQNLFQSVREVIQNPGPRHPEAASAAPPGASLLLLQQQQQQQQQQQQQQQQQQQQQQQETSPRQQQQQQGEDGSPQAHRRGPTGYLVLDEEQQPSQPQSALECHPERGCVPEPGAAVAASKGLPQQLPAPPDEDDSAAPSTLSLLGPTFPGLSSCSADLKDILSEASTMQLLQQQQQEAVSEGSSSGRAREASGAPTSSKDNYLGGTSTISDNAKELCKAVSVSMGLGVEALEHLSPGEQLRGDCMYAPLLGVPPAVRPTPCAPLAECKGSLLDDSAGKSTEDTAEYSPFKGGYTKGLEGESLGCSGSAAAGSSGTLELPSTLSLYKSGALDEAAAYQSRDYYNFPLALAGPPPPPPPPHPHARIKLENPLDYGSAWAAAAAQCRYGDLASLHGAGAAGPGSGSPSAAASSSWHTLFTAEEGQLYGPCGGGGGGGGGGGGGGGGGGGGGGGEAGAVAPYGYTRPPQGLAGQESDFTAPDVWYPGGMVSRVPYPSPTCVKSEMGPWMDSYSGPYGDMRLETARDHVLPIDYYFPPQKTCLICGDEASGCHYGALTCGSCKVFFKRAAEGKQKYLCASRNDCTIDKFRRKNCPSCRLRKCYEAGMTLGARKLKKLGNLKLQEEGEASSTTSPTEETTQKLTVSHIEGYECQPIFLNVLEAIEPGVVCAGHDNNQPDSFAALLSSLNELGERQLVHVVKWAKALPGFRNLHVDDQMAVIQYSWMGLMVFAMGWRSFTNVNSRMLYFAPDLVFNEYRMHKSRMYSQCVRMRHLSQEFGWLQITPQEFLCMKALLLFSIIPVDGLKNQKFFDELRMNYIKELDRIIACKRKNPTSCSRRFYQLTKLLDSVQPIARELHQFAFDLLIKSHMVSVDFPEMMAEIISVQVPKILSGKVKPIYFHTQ
Background: A western blot detects proteins with antibodies after separation by electrophoresis.

The test system of assay [1] is AR positive human prostate cancer cells VCaP. Briefly: Agonist activity for AR (cell proliferation rate of VCaP cells). As to conditions: 72 hours, 2 to 10000 nmol/L, more than 10% at any concentration = agonist activity for AR. As for the experimental part: AR positive human prostate cancer cells VCaP (In Vivo 15:163-168, 2001) were seeded in a clear bottom 96 well microplate (BD) at 1.5×10^4/well with phenol red free RPMI1640 containing 5% DCC-FBS (hereinbelow, the medium is referred to as an evaluation medium), and then cultured overnight. The culture was added with the evaluation medium containing the compound of Examples or the compound of Comparative Examples (final concentration of the compound of Examples or the compound of Comparative Examples: 2, 5, 14, 41, 123, 370, 1111, 3333, or 10000 nmol/L), followed by culture for 72 hours. Then, the number of viable cells was counted (test group). As a control, the cells were cultured after being added with the evaluation medium only, and the number of viable cells was counted (control group). The number of viable cells was measured by using CellTiter-Glo™ Luminescent Cell Viability Assay (Promega). From the measured number of viable cells, cell proliferation rate with respect to the compound of Examples or the compound of Comparative Examples was calculated based on the number of viable cells measured in the case of using the evaluation medium only. Cell proliferation rate (%) =(Number of viable cells in test group−Number of viable cells in control group)/(Number of viable cells in control group)×100
By considering an error in the number of viable cells measured in the case of using the evaluation medium only, when the cell proliferation rate was more than 10% at any concentration of the 9 concentrations which had been evaluated, it was determined to have an agonist activity for AR.

Chain of human androgen receptor (P10275 whole entry): as the sequence (P10275 whole entry T878A) above, with A878T counted along it

For orientation: pIC50 means the negative decadic logarithm of the IC50, by convention in mol/L. Take `CC(C)(COc1ccc(Nc2ncnc3c2CCN(c2ccc(C#N)c(Cl)c2)C3)nc1)n1cnnn1` [Example 53, 2-Chloro-4-(4-((5-(2-methyl-2-(1H-tetrazol-1-yl)propoxy)pyridin-2-yl)amino)-5,6-dihydropyrido[3,4-d]pyrimidin-7(8H)-yl)benzonitrile]: the pIC50 against human androgen receptor was 7.26.
For the compound `CC(C)(O)c1sc(Nc2ncnc3c2CCN(c2ccc(C#N)c(C(F)(F)F)c2)C3)nc1C(F)(F)F` [Example 8, 4-(4-((5-(2-Hydroxypropan-2-yl)-4-(trifluoromethyl)thiazol-2-yl)amino)-5,6-dihydropyrido[3,4-d]pyrimidin-7(8H)-yl)-2-(trifluoromethyl)benzonitrile], the “10 μM AR expression reducing activity” value on androgen receptor is on record as “reduced (When the AR expression reducing activity is 50% or more, it is described as “reduced”)”. Moreover, the pIC50 against human androgen receptor was 6.60.
Consider `CC(C)(O)c1cnc(Nc2ncnc3c2CCN(c2ccc(C#N)c(Cl)c2)C3)cc1F` [Example 45, 2-Chloro-4-(4-((4-fluoro-5-(2-hydroxypropan-2-yl)pyridin-2-yl)amino)-5,6-dihydropyrido[3,4-d]pyrimidin-7 (8H)-yl)benzonitrile], for which, at human androgen receptor, the pIC50 is 6.03.
In turn, `N#Cc1cc(C(F)(F)F)ccc1N1CCc2c(ncnc2Nc2ccc(C(=O)NCC(F)(F)F)cn2)C1` [Comparative Example 8, 6-((7-(2-Cyano-4-(trifluoromethyl)phenyl)-5,6,7,8-tetrahydropyrido[3,4-d]pyrimidin-4-yl)amino)-N-(2,2,2-trifluoroethyl)nicotinamide, reference compound] had a pIC50 against human androgen receptor of under 5.00.
For `N#Cc1ccc(C(F)(F)F)cc1N1CCc2c(ncnc2Nc2ccc(C(=O)NCC(F)(F)F)cn2)C1` [Comparative Example 9, 6-((7-(2-Cyano-5-(trifluoromethyl)phenyl)-5,6,7,8-tetrahydropyrido[3,4-d]pyrimidin-4-yl)amino)-N-(2,2,2-trifluoroethyl)nicotinamide, reference compound], at human androgen receptor, the negative logarithm of the IC50 (pIC50) is under 5.00.
At human androgen receptor, `CC(C)(O)c1ccc(Nc2ncnc3c2CCN(c2ccc(C#N)cc2)C3)nc1` [Comparative Example 11, 4-(4-((5-(2-Hydroxypropan-2-yl)pyridin-2-yl)amino)-5,6-dihydropyrido[3,4-d]pyrimidin-7(8H)-yl)benzonitrile, reference compound] gave a pIC50 of under 5.00. The “antagonist activity for AR (in words)” value on human androgen receptor (COS-7 reporter assay) is “did not show the antagonist activity for AR”.
Turning to `N#Cc1ccc(N2CCc3c(ncnc3Nc3ccc(NC(=O)OCC(F)(F)F)cn3)C2)cc1C(F)(F)F` [Example 21, 2,2,2-Trifluoroethyl (6-((7-(4-cyano-3-(trifluoromethyl)phenyl)-5,6,7,8,-tetrahydropyrido[3,4-d]pyrimidin-4-yl)amino)pyridin-3-yl)carbamate], the “Cell proliferation rate (%)” value in assay [1] was −0.6%. In addition, on human androgen receptor, the pIC50 is 6.42.
As to `CC(C)(O)c1ccc(Nc2ncnc3c2CCN(c2cccc(Cl)c2C#N)C3)nc1` [Comparative Example 7, 2-Chloro-6-(4-((5-(2-hydroxypropan-2-yl)pyridin-2-yl)amino)-5,6-dihydropyrido[3,4-d]pyrimidin-7 (8H)-yl)benzonitrile, reference compound], the pIC50 against human androgen receptor is under 5.00.
`CC(C)(O)c1ccc(Nc2ncnc3c2CCN(c2ccc(C#N)cc2Cl)C3)nc1` [Comparative Example 5, 3-Chloro-4-(4-((5-(2-hydroxypropan-2-yl)pyridin-2-yl)amino)-5,6-dihydropyrido[3,4-d]pyrimidin-7(8H)-yl)benzonitrile, reference compound] had a pIC50 against human androgen receptor of under 5.00.
For `CC(O)c1ccc(Nc2ncnc3c2CCN(c2ccc(C#N)c(C(F)(F)F)c2)C3)cc1` (stereo not shown) [Example 58], the “Cell proliferation rate (%)” value in assay [1] was 2.0%.
For `COc1cccc(Nc2ncnc3c2CCN(c2ccc(C#N)c(Cl)c2)C3)c1` [Example 55, 2-Chloro-4-(4-((3-methoxyphenyl)amino)-5,6-dihydropyrido[3,4-d]pyrimidin-7(8H)-yl)benzonitrile], the “Cell proliferation rate (%)” value in assay [1] stood at 1.0%.
Take `COc1ccc(Nc2ncnc3c2CCN(c2ccc(C#N)c(Cl)c2)C3)cc1` [Example 54, 2-Chloro-4-(4-((4-methoxyphenyl)amino)-5,6-dihydropyrido[3,4-d]pyrimidin-7(8H)-yl)benzonitrile]: in assay [1], the “Cell proliferation rate (%)” value is 3.4%.
`N#Cc1ccc(N2CCc3c(ncnc3Nc3ncc(C(=O)NCC(F)(F)F)nn3)C2)cc1C(F)(F)F` [Example 25, 3-((7-(4-Cyano-3-(trifluoromethyl)phenyl)-5,6,7,8-tetrahydropyrido[3,4-d]pyrimidin-4-yl)amino)-N-(2,2,2-trifluoroethyl)-1,2,4-triazine-6-carboxamide]: the “Cell proliferation rate (%)” value in assay [1] was found to be 6.3%. The same compound gave a pIC50 at human androgen receptor of 5.48.
Consider `CC(C)(O)C1CCN(C(=O)c2nnc(Nc3ncnc4c3CCN(c3ccc(C#N)c(C(F)(F)F)c3)C4)o2)CC1` [Example 43, 4-(4-((5-(4-(2-Hydroxypropan-2-yl)piperidin-1-carbonyl)-1,3,4-oxadiazol-2-yl)amino)-5,6-dihydropyrido[3,4-d]pyrimidin-7(8H)-yl)-2-(trifluoromethyl)benzonitrile], for which the pIC50 against human androgen receptor was 6.10.
`CC(C)(O)c1ccc(Nc2ncnc3c2CCN(c2cc(Cl)cc(C#N)c2)C3)nc1` [Comparative Example 6, 3-Chloro-5-(4-((5-(2-hydroxypropan-2-yl)pyridin-2-yl)amino)-5,6-dihydropyrido[3,4-d]pyrimidin-7 (8H)-yl)benzonitrile, reference compound] had a pIC50 against human androgen receptor of under 5.00.
Regarding `N#Cc1ccc(N2CCc3c(ncnc3Nc3ccc(C(=O)NCC(F)F)nc3)C2)cc1C(F)(F)F` [Example 48, 5-((7-(4-Cyano-3-(trifluoromethyl)phenyl)-5,6,7,8-tetrahydropyrido[3,4-d]pyrimidin-4-yl)amino)-N-(2,2-difluoroethyl)picolinamide], the “Cell proliferation rate (%)” value in assay [1] was −2.6%. This compound had a pIC50 on human androgen receptor of 6.31.
`N#Cc1cccc(N2CCc3c(ncnc3Nc3ccc(C(=O)NCC(F)(F)F)cn3)C2)c1C(F)(F)F` [Comparative Example 10, 6-((7-(3-Cyano-2-(trifluoromethyl)phenyl)-5,6,7,8-tetrahydropyrido[3,4-d]pyrimidin-4-yl)amino)-N-(2,2,2-trifluoroethyl)nicotinamide, reference compound] showed a pIC50 against human androgen receptor of under 5.00.
Regarding `N#Cc1ccc(N2CCc3c(ncnc3Nc3ccc(OCCn4ccnn4)nc3)C2)cc1C(F)(F)F` [Example 15, 4-(4-((6-(2-(1H-1,2,3-Triazol-1-yl)ethoxy)pyridin-3-yl)amino)-5,6-dihydropyrido[3,4-d]pyrimidin-7 (8H)-yl)-2-(trifluoromethyl)benzonitrile], the “Cell proliferation rate (%)” value in assay [1] came to 0.3%. For the same compound, the pIC50 against human androgen receptor was 6.89.
Consider `N#Cc1ccc(N2CCc3c(ncnc3Nc3cc(C(=O)NCC(F)(F)F)ccn3)C2)cc1C(F)(F)F` [Example 31, 2-((7-(4-Cyano-3-(trifluoromethyl)phenyl)-5,6,7,8-tetrahydropyrido[3,4-d]pyrimidin-4-yl)amino)-N-(2,2,2-trifluoroethyl)isonicotinamide], for which, on human androgen receptor, the pIC50 is 6.41.
With `N#Cc1ccc(N2CCc3c(ncnc3Nc3ccc(CC(=O)NCC(F)(F)F)cn3)C2)cc1C(F)(F)F` [Example 22, 2-(6-((7-(4-Cyano-3-(trifluoromethyl)phenyl)-5,6,7,8-tetrahydropyrido[3,4-d]pyrimidin-4-yl)amino)pyridin-3-yl)-N-(2,2,2-trifluoroethyl)acetamide], the pIC50 against human androgen receptor is 6.43.
With `N#Cc1ccc(N2CCc3c(ncnc3Nc3ccc(C4(O)CCC4)c(F)n3)C2)cc1Cl` [Example 56, 2-Chloro-4-(4-((6-fluoro-5-(1-hydroxycyclobutyl)pyridin-2-yl)amino)-5,6-dihydropyrido[3,4-d]pyrimidin-7 (8H)-yl)benzonitrile], the “Cell proliferation rate (%)” value in assay [1] was found to be 8.0%. The compound further showed a pIC50 against human androgen receptor of 6.08.

Source of the values: patent US10300067B2, “Tetrahydropyridopyrimidine compound or salt thereof” (TAIHO PHARMACEUTICAL CO., LTD., priority 2014, dated 2019).
